We go through four molecules from ChEMBL document CHEMBL4402544, “Reasonably activating Nrf2: A long-term, effective and controllable strategy for neurodegenerative diseases” (Eur J Med Chem, 2020).

A word on the EC50: it is the concentration that produces a half-maximal response. The low end stands for higher potency in that assay, the high end for lower potency in that assay. As a reminder, the IC50 is the concentration at which inhibition is half-maximal. High values mean weaker potency, low ones greater potency.

A short description of test [1]: Neuroprotection activity in human MC65 cells. The format is functional, cell-based.
Test [2] addresses T1, Nuclear factor erythroid 2-related factor 2 (Homo sapiens) (UniProt Q16236).
T1 sequence (whole entry): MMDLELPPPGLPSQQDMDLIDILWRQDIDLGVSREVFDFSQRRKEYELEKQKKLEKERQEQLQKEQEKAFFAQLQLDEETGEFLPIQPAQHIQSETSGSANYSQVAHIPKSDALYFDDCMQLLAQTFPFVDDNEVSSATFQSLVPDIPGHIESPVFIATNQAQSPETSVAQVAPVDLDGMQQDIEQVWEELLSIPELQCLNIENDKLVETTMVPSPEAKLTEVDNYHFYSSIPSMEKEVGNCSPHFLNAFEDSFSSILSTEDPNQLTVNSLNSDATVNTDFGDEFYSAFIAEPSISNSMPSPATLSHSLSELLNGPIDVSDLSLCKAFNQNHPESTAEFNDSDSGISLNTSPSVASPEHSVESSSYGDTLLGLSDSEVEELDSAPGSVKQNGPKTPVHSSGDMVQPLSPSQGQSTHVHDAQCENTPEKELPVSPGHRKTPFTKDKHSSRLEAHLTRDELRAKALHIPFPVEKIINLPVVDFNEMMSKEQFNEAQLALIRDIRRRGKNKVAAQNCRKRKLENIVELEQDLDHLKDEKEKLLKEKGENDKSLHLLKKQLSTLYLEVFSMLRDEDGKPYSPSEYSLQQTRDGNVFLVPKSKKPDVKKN
The test is described as follows: Activation of Nrf2 (unknown origin) assessed as induction of ARE at 60 uM.

In test [3] the target is Kelch-like ECH-associated protein 1 (Homo sapiens, UniProt Q14145). The test is described as follows: Binding affinity to Keap1 (unknown origin).
Sequence of Kelch-like ECH-associated protein 1 (Q14145 whole entry): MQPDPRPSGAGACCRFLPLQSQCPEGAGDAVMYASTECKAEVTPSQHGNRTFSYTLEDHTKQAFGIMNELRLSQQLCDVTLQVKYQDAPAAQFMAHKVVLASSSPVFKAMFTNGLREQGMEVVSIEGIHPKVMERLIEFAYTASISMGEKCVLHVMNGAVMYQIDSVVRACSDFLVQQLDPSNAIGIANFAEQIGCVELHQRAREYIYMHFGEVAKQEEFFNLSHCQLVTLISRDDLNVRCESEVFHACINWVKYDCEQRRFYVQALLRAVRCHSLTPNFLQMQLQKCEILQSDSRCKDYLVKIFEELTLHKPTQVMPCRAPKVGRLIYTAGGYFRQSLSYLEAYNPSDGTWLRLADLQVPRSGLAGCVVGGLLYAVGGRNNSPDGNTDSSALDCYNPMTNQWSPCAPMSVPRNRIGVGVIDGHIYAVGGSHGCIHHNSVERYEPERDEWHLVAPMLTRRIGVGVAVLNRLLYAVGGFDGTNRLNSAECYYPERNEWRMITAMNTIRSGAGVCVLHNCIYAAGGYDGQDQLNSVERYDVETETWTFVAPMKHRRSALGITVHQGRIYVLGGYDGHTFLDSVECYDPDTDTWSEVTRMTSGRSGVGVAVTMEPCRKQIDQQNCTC
Test [4] addresses T1, Nuclear factor erythroid 2-related factor 2 (Homo sapiens). The test is described as follows: Activation of Nrf2 in human SK-N-SH cells expressing Nqo1 ARE-Luc reporter plasmid at 10 uM after 18 hrs by luciferase reporter gene assay. It is filed as cell-based. A general note: In a reporter assay the amount or activity of a reporter protein is the signal.

Where a SMILES comes first, the peptide text is derived from it. [ ]: non-standard residue; d: D form. ξ: configuration not given here. ξCha = NC(CC1CCCCC1)C(=O)O; ξThz = O=C(O)C1CSCN1 A value given as a limit tells only on which side of the number the result lay.

Molecule `COc1ccc2[nH]cc(CCNC(=O)CC(=O)CCc3ccc(O)cc3)c2c1` registered an EC50 in test [1] of 27.6 nM.

For the molecule `C/C=C/C(=O)Oc1ccc2[nH]cc(CCNC(C)=O)c2c1`, the fold change (FC) in test [2] worked out at 30.7.

The molecule `C[C@@H](O)[C@H](NC(=O)[C@H](CCC(=O)O)NC(=O)C1CSCN1C(=O)[C@@H](N)CC(=O)O)C(=O)NCC(=O)N[C@@H](CCC(=O)O)C(=O)NC(CC1CCCCC1)C(=O)O` (some centres undefined) (H-D[ξThz]ETGE[ξCha]-OH) displayed an IC50 in test [3] of 31 nM.

Take `C[C@@H]1C(NC(=O)c2ccccc2O)=CC(=O)[C@@H]2O[C@H]12`: in test [4], the fold change (FC) was greater than 4.
